Patent US8232245B2, “Caspofungin formulations” (Sandoz AG, priority 2006, dated 2012)

Experiment: Solubility / dissolution in water and solid form stability of caspofungin propionate
Assay type: physicochemical

In the case of `CCC(C)CC(C)CCCCCCCCC(=O)N[C@H]1C[C@@H](O)[C@@H](NCCN)NC(=O)[C@@H]2[C@@H](O)CCN2C(=O)[C@H]([C@H](O)CCN)NC(=O)[C@H]([C@H](O)[C@@H](O)c2ccc(O)cc2)NC(=O)[C@@H]2C[C@@H](O)CN2C(=O)[C@H]([C@@H](C)O)NC1=O` (stereo partly drawn) [Caspofungin dipropionate, caspofungin dipropionate], the time to dissolve (533.5 mg crystalline salt in 5 ml aqueous mannitol 40 mg/ml / sucrose 60 mg/ml) is reported as ≤ 3 min.
In the case of `CCC(C)CC(C)CCCCCCCCC(=O)N[C@H]1C[C@@H](O)[C@@H](NCCN)NC(=O)[C@@H]2[C@@H](O)CCN2C(=O)[C@H]([C@H](O)CCN)NC(=O)[C@H]([C@H](O)[C@@H](O)c2ccc(O)cc2)NC(=O)[C@@H]2C[C@@H](O)CN2C(=O)[C@H]([C@@H](C)O)NC1=O` (stereo partly drawn) [Crystalline caspofungin propionate, caspofungin propionate], the solubility in water is reported as “freely soluble in water” and the “stability of solid form” value (crystalline versus amorphous form) is reported as “more stable than the amorphous form”.
